Data reported in publication PMC9127750, “Structure-based design of CDC42 effector interaction inhibitors for the treatment of cancer” (Cell reports, 2022).
Where “and” joins values, the source holds several entries; their conditions need not be identical. Equal entries are not always repeated.

Test system: WM3248 melanoma cells, 486 antibodies
Assay: Reverse phase protein arrays (RPPA)
Assay type: cell-based, Human
Conditions: 5 uM
Source text: Pellets were snap frozen in liquid nitrogen and shipped to MD Anderson Cancer Center core RPPA facility for RPPA analysis (Table S5). Three biological replicates for each sample were generated.
Nomenclatures on the RPPA heatmaps: name_of_antibody.species_of_antibody.status_of_antibody. V - antibody validated; C - validation of antibody in progress; Q - antibody nonspecific; E – under evaluation; antibodies raised in M - mouse, G - goat, R - rabbit, or T - rat.

`CN(C)c1cccc(Nc2cc(-c3ccccc3)nc(C3CCNCC3)n2)c1` [ARN22089, N1,N1-dimethyl-N3-(6-phenyl-2-(piperidin-4-yl)pyrimidin-4-yl)benzene-1,3-diamine] was tested, and the “DJ1.R.V RPPA level” value (replicates) was 1.007 and 1.125, the “DM.Histone.H3.R.V RPPA level” value (replicates) was 0.950 and 1.152 and 1.117 and the “DM.K9.Histone.H3.M.V RPPA level” value (replicates) was 1.035 and 0.996. The “DNA.Ligase.IV.R.C RPPA level” value (replicates) was 1.015 and 1.171 and 1.125, the “DNA_POLG.R.V RPPA level” value (replicates) was 1.082 and 0.866 and 0.834 and the “c.Jun_pS73.R.V RPPA level” value (replicates) was 0.903 and 1.005. The “c.Kit.R.V RPPA level” value (replicates) was 1.119 and 0.884 and 0.682, the “c.Met_pY1234_Y1235.R.V RPPA level” value (replicates) was 0.935 and 1.110 and 1.140 and the “c.Myc.R.C RPPA level” value (replicates) was 1.016 and 0.996 and 1.017. For the same compound, the “cGAS.R.V RPPA level” value (replicates) was 1.013 and 0.955, the “cdc2_pY15.R.C RPPA level” value (replicates) was 0.982 and 1.425 and 1.193 and the “cdc25C.R.V RPPA level” value (replicates) was 0.985 and 0.925 and 0.943. For the same compound, the “RPPA MYH11.R.C” value (single replicates) was 1.049 and 0.899 and 0.794, the “RPPA Myosin.IIa.R.C” value (single replicates) was 0.881 and 0.604 and the “RPPA Myosin.IIa_pS1943.R.V” value (single replicates) was 1.019 and 0.869 and 0.642. For the same compound, the “RPPA Myt1.R.C” value (single replicates) was 0.900, the “RPPA N.Cadherin.R.V” value (single replicates) was 1.025 and 0.927 and 1.105 and the “RPPA N.Ras.M.V” value (single replicates) was 1.017 and 0.997. The “RPPA NAPSIN.A.R.C” value (single replicates) was 0.989 and 1.114 and 1.136, the “RPPA NDRG1_pT346.R.V” value (single replicates) was 0.757 and 1.000 and 1.113 and the “RPPA NDUFB4.R.V” value (single replicates) was 1.030 and 0.897. For the same compound, the “RPPA NRF2.R.C” value (single replicates) was 0.980 and 1.023 and 1.172, the “RPPA Notch1.R.V” value (single replicates) was 0.979 and 0.930 and the “RPPA Notch1.cleaved.R.V” value (single replicates) was 0.872 and 1.026. The “RPPA Notch3.R.C” value (single replicates) was 0.916 and 1.149, the “RPPA Oct.4.R.C” value (single replicates) was 1.033 and 1.165 and 1.085 and the “RPPA P.Cadherin.R.C” value (single replicates) was 0.913 and 1.419 and 0.819. For the same compound, the “RPPA PAI.1.M.V” value (single replicates) was 0.893 and 0.953 and 1.083, the “RPPA PAICS.R.C” value (single replicates) was 1.002 and 0.988 and 0.707 and the “RPPA PAK1.R.V” value (single replicates) was 1.101. For the same compound, the “RPPA PAK4.R.V” value (single replicates) was 0.901 and 0.983, the “RPPA PAK_pS474_S602_S560.R.V” value (single replicates) was 1.077 and 0.883 and 0.855 and the “RPPA PAK_pT423_T402.R.C” value (single replicates) was 0.941 and 1.054 and 0.768. The “RPPA PAR.R.C” value (single replicates) was 1.057 and 2.014 and 0.910, the “RPPA PARG.R.C” value (single replicates) was 0.916 and 0.961 and 1.160 and the “RPPA PARP.R.V” value (single replicates) was 0.918 and 1.359 and 0.791. For the same compound, the “RPPA PAX6.R.V” value (single replicates) was 0.958 and 1.096, the “RPPA PAX8.R.C” value (single replicates) was 1.084 and 0.915 and 0.888 and the “RPPA PCNA.M.C” value (single replicates) was 0.983 and 0.768. The “RPPA PD.1.R.V” value (single replicates) was 1.028 and 0.932 and 1.016, the “RPPA PD.L1.R.C” value (single replicates) was 0.986 and 1.136 and the “RPPA PDH.M.V” value (single replicates) was 1.030 and 0.955 and 1.162. For the same compound, the “RPPA PDHA1.R.V” value (single replicates) was 0.999 and 1.134 and 1.104, the “RPPA PDHK1.R.C” value (single replicates) was 0.895 and 1.143 and 1.132 and the “RPPA PDK1.R.V” value (single replicates) was 0.979 and 1.236 and 0.914. The “RPPA PDK1_pS241.R.V” value (single replicates) was 1.012 and 1.286 and 1.116, the “RPPA PEA.15.R.V” value (single replicates) was 0.973 and 1.022 and 0.716 and the “RPPA PEA.15_pS116.R.V” value (single replicates) was 1.025 and 1.082. The “RPPA PERK.R.V” value (single replicates) was 0.799 and 0.886, the “RPPA PGM1.R.V” value (single replicates) was 0.922 and the “RPPA PHGDH.R.C” value (single replicates) was 1.026 and 1.054 and 1.162. For the same compound, the “RPPA PHLPP.R.V” value (single replicates) was 1.309 and 0.725 and 0.733, the “RPPA PI3K.p85.R.C” value (single replicates) was 0.979 and the “RPPA PI3K.p110.a.R.C” value (single replicates) was 0.889 and 1.115 and 1.166. For the same compound, the “RPPA PI3K.p110.b.M.C” value (single replicates) was 1.076 and 0.970 and 0.893, the “RPPA PKA.a.R.V” value (single replicates) was 1.082 and 0.998 and 0.958 and the “RPPA PKC.a.b.II_pT638_T641.R.V” value (single replicates) was 0.773 and 0.933. The “RPPA PKC.b.II_pS660.R.V” value (single replicates) was 0.932 and 1.415 and 1.139, the “RPPA PKCa.R.V” value (single replicates) was 0.879 and 2.309 and 1.199 and the “RPPA PKM2.R.C” value (single replicates) was 0.777. For the same compound, the “RPPA PLC.gamma1.R.V” value (single replicates) was 1.266 and 0.848 and 0.796, the “RPPA PLC.gamma1_pS1248.R.V” value (single replicates) was 1.131 and 1.203 and 0.848 and the “RPPA PLC.gamma2_pY759.R.V” value (single replicates) was 0.953. The “RPPA PLK1.R.C” value (single replicates) was 0.988 and 0.536 and 1.237, the “RPPA PMS2.R.V” value (single replicates) was 1.054 and 0.898 and 0.867 and the “RPPA PR.R.V” value (single replicates) was 1.016 and 0.968 and 1.112. The “RPPA PRAS40.M.C” value (single replicates) was 1.006 and 0.977 and 0.990, the “RPPA PRAS40_pT246.R.V” value (single replicates) was 0.957 and 1.288 and 0.838 and the “RPPA PRC1_pT481.R.C” value (single replicates) was 0.841 and 0.955. For the same compound, the “RPPA PREX1.R.V” value (single replicates) was 0.972 and 0.995 and 1.201, the “RPPA PTEN.R.V” value (single replicates) was 0.880 and 1.147 and the “RPPA PTPN12.R.V” value (single replicates) was 1.009 and 1.217 and 1.054. The “RPPA PYGB.R.V” value (single replicates) was 0.990 and 0.966 and 0.675, the “RPPA PYGM.M.C” value (single replicates) was 1.013 and 0.953 and 0.526 and the “RPPA Patched.R.C” value (single replicates) was 0.925 and 1.120 and 1.169. For the same compound, the “RPPA Paxillin.R.C” value (single replicates) was 0.754 and 1.008 and 1.170, the “RPPA Pdcd4.R.C” value (single replicates) was 0.973 and 1.288 and 1.207 and the “RPPA Porin.M.V” value (single replicates) was 1.021 and 0.963 and 0.824. For the same compound, the “RPPA Puma.R.C” value (single replicates) was 1.003 and 0.771, the “RPPA Pyk2_pY402.R.C” value (single replicates) was 0.977 and 1.146 and 1.149 and the “RPPA RBM15.R.V” value (single replicates) was 0.950 and 1.004 and 0.982.
